# Measurements published in ChEMBL document CHEMBL3217533, “Inhibition of Ras-Effector Interaction by Cyclic Peptides” (Medchemcomm, 2013).
# The source made the active and inactive calls. No cut-off for these calls is given here. *1 amine or outer side, *2 acyl side, *3 side chain or, on linkers, in order; H or OH if unused. Where a SMILES comes first, the peptide text is derived from it. Bridges are numbered along the chain shown (N, C = ends). [ ]: non-standard residue; d: D form. dβ3h(hPhe) = O=C(C[C@@H](CCc1ccccc1)N[*:1])[*:2]; Phe(4-F) = N[C@@H](Cc1ccc(F)cc1)C(=O)O; X1 = CC(C)(CO[*:2])C(=O)C(=O)[*:1]; Pip = O=C(O)[C@@H]1CCCCN1
# Columns and labels:
# GTPase KRas = GTPase KRas (Homo sapiens, UniProt P01116, G12V); assay: Inhibition of recombinant HA-tagged K-Ras G12V mutant (unknown origin) assessed as disruption of interaction with GST-tagged Raf-RBD after overnight incubation by HTRF assay
# [1] = test system: GTPase KRas (Homo sapiens), P01116 [G12V]; assay: Inhibition of K-Ras G12V mutant (unknown origin) assessed as disruption fluorescein-labeled Raf binding to beads immobilized with K-Ras G12V mutant at 10 uM after 60 mins by fluorescence microscopic-based bead binding assay
# [2] = Binding affinity to MBP-tagged VP35 (unknown origin) up to 20 uM by fluorescence anisotropic assay
# [3] = test system: GTPase KRas (Homo sapiens), P01116 [G12V]; assay: Inhibition of K-Ras G12V mutant in human A549 cells assessed as decrease in Erk phosphorylation up to 16 hrs; format: cell-based
# Albumin = Albumin (Bos taurus, UniProt P02769); assay: Binding affinity to bovine serum albumin up to 20 uM by fluorescence anisotropic assay; settings: cattle
# [4] = test system: GTPase KRas (Homo sapiens), P01116 [G12V]; assay: Inhibition of K-Ras G12V mutant in human A549 cells assessed as decrease in Mek phosphorylation up to 16 hrs; format: cell-based
# [5] = test system: GTPase KRas (Homo sapiens), P01116 [G12V]; assay: Inhibition of K-Ras G12V mutant in human H358 cells assessed as decrease in Mek phosphorylation up to 16 hrs; format: cell-based
# [6] = test system: GTPase KRas (Homo sapiens), P01116 [G12V]; assay: Inhibition of K-Ras G12V mutant (unknown origin) assessed as disruption of interaction with Tiam1 at 10 uM after 60 mins by fluorescence microscopic-based bead binding assay
# [7] = test system: GTPase KRas (Homo sapiens), P01116 [G12V]; assay: Inhibition of K-Ras G12V mutant in human H358 cells assessed as decrease in Erk phosphorylation up to 16 hrs; format: cell-based
# [8] = target: T1, Tyrosine-protein phosphatase non-receptor type 1 (Homo sapiens) (UniProt P18031); assay: Binding affinity to PTP1B (unknown origin) up to 20 uM by fluorescence anisotropic assay
# T1 sequence (whole entry): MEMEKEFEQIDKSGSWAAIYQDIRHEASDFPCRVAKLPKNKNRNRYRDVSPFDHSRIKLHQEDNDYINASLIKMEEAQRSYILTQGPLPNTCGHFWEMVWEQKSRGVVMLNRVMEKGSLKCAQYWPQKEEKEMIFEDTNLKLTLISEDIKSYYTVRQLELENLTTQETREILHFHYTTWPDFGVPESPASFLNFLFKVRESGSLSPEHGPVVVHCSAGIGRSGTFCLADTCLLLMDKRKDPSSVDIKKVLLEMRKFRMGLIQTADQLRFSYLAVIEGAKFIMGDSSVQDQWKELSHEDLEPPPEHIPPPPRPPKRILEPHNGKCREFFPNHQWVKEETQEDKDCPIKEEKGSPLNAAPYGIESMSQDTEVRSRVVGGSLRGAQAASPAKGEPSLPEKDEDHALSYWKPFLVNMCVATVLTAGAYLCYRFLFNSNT
# [9] = test system: GTPase KRas (Homo sapiens), P01116 [G12V]; settings: 10 uM
# [10] = test system: GTPase KRas (Homo sapiens), P01116 [G12V]; assay: Inhibition of K-Ras G12V mutant (unknown origin) assessed as disruption of interaction with GST-tagged Raf-RBD at 10 uM after 60 mins by fluorescence microscopic-based bead binding assay
# [11] = target: SH2 domain-containing protein 2A (Homo sapiens) (UniProt Q9NP31); assay: Binding affinity to GST-tagged TSAD SH2 domain (unknown origin) up to 20 uM by fluorescence anisotropic assay
# [12] = target: T2, Tyrosine-protein phosphatase non-receptor type 2 (Homo sapiens) (UniProt P17706); assay: Binding affinity to TCPTP (unknown origin) up to 20 uM by fluorescence anisotropic assay
# T2 sequence (whole entry): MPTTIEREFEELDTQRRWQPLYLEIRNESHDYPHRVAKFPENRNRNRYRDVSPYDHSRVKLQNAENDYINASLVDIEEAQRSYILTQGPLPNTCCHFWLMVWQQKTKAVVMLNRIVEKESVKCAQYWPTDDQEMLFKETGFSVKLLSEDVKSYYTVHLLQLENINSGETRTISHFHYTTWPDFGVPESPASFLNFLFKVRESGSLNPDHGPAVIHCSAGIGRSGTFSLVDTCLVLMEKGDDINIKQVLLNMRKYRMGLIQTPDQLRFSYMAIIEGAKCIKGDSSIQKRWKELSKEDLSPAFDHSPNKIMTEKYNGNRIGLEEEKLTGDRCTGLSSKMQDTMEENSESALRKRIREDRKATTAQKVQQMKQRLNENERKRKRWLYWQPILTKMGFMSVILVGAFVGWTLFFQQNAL
# [13] = test system: GTPase KRas (Homo sapiens), P01116 [G12V]; assay: Binding affinity to K-Ras G12V mutant (unknown origin) by surface plasmon resonance assay
# [14] = test system: GTPase KRas (Homo sapiens), P01116 [G12V]; assay: Binding affinity to K-Ras G12V mutant (unknown origin) after 2 hrs by fluorescence polarization-based spectrofluorimetric analysis
# Sequence of GTPase KRas (P01116 whole entry G12V): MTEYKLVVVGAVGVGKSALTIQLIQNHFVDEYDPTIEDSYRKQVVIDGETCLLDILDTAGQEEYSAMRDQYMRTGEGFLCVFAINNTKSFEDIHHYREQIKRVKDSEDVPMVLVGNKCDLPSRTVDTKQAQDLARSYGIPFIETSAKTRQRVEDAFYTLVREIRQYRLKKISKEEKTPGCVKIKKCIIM
# Sequence of GTPase KRas (Homo sapiens), P01116 [G12V] (P01116 whole entry G12V, the tested form may be a part): as the sequence (P01116 whole entry G12V) above
# Sequence of SH2 domain-containing protein 2A (Homo sapiens) (Q9NP31 whole entry, looked up, the tested form may be a part): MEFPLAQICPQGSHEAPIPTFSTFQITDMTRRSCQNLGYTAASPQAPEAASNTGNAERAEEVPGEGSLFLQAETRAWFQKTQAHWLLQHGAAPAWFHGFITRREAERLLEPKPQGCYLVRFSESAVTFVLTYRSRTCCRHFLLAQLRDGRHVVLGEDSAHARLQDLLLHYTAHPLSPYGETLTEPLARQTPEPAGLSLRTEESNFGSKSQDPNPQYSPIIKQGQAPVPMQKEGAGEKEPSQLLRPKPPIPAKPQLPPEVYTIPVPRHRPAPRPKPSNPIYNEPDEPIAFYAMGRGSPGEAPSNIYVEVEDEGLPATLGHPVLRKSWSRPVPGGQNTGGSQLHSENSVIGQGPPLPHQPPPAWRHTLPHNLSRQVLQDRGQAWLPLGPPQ
# Sequence of Albumin (P02769 whole entry): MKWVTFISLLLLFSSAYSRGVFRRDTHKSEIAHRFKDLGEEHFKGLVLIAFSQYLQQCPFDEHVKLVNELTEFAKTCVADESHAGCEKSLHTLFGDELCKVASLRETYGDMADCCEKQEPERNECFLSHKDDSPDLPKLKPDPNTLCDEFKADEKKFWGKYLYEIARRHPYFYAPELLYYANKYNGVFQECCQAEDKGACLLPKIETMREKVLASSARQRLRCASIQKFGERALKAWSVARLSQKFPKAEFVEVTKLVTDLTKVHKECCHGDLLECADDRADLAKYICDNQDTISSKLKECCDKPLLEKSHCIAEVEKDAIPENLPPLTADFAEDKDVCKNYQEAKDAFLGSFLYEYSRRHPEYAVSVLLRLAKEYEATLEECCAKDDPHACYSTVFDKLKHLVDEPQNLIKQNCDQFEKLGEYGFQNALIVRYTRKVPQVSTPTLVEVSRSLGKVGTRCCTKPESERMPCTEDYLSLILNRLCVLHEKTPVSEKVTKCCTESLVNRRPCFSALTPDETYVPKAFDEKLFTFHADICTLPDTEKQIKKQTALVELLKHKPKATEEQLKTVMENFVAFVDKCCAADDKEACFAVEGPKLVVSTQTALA
structure (smiles),measurement,setting,value
CC1(C)COC(=O)[C@H](Cc2ccccc2)NC(=O)[C@H](CCCNC(=N)N)NC(=O)[C@H](Cc2ccc(O)cc2)NC(=O)[C@@H]2CCCN2C(=O)[C@H](Cc2ccc(O)cc2)NC(=O)[C@@H](Cc2ccccc2)NC(=O)[C@H](CCC(N)=O)NC(=O)C[C@@H](CCc2ccccc2)NC(=O)[C@@H]2CCCCN2C(=O)C1=O,IC50,GTPase KRas,10000 nM
CC(C)C[C@@H]1NC(=O)[C@H](CCC(=O)O)NC(=O)[C@H](c2ccccc2)NC(=O)[C@@H](Cc2ccccc2)NC(=O)[C@H](CCCN)NC(=O)[C@@H]2CCCN2C(=O)[C@H](CCC(N)=O)NC(=O)C[C@@H](CCc2ccccc2)NC(=O)[C@@H]2CCCCN2C(=O)C(=O)C(C)(C)COC1=O,IC50,GTPase KRas,10000 nM
CC(C)[C@@H]1NC(=O)[C@@H](CC(N)=O)NC(=O)[C@H](CCCNC(=N)N)NC(=O)[C@H](CCCNC(=N)N)NC(=O)[C@H](Cc2ccc(F)cc2)NC(=O)[C@H](Cc2ccc(O)cc2)NC(=O)[C@H](CCC(N)=O)NC(=O)C[C@@H](CCc2ccccc2)NC(=O)[C@@H]2CCCCN2C(=O)C(=O)C(C)(C)COC1=O,IC50,GTPase KRas,1200 nM
CC1(C)COC(=O)[C@H](Cc2ccccc2)NC(=O)[C@H](CCCNC(=N)N)NC(=O)CNC(=O)[C@H](Cc2ccc(O)cc2)NC(=O)[C@@H](Cc2ccc3ccccc3c2)NC(=O)[C@H](CCCN)NC(=O)[C@H](CCC(N)=O)NC(=O)C[C@@H](CCc2ccccc2)NC(=O)[C@@H]2CCCCN2C(=O)C1=O,IC50,GTPase KRas,1800 nM
CC1(C)COC(=O)[C@H](Cc2ccccc2)NC(=O)[C@H](CCCNC(=N)N)NC(=O)[C@@H](Cc2ccc3ccccc3c2)NC(=O)[C@H](CCCNC(=N)N)NC(=O)[C@@H](Cc2ccccc2)NC(=O)[C@H](CCCN=C(N)N)NC(=O)[C@H](CCC(N)=O)NC(=O)C[C@@H](CCc2ccccc2)NC(=O)[C@@H]2CCCCN2C(=O)C1=O,IC50,GTPase KRas,1100 nM
CC(C)C[C@@H]1NC(=O)[C@@H](Cc2ccc3ccccc3c2)NC(=O)[C@H](CCCNC(=N)N)NC(=O)[C@@H](C(C)C)NC(=O)[C@H](CCCNC(=N)N)NC(=O)[C@H](C)NC(=O)[C@H](CCC(N)=O)NC(=O)C[C@@H](CCc2ccccc2)NC(=O)[C@@H]2CCCCN2C(=O)C(=O)C(C)(C)COC1=O,IC50,GTPase KRas,2000 nM
C[C@@H]1NC(=O)[C@H](Cc2ccc(O)cc2)NC(=O)[C@H](CCCNC(=N)N)NC(=O)[C@@H]([C@H](C)O)NC(=O)CNC(=O)[C@H](CCC(N)=O)NC(=O)C[C@@H](CCc2ccccc2)NC(=O)[C@@H]2CCCCN2C(=O)C(=O)C(C)(C)COC(=O)[C@H](Cc2ccccc2)NC1=O,IC50,GTPase KRas,2300 nM
CCCC[C@H]1NC(=O)[C@H](Cc2ccc(F)cc2)NC(=O)[C@H](CCCN=C(N)N)NC(=O)[C@@H](Cc2ccc3ccccc3c2)NC(=O)[C@H](CCCN=C(N)N)NC(=O)[C@H](CCCN=C(N)N)NC(=O)[C@H](CCC(N)=O)NC(=O)C[C@@H](CCc2ccccc2)NC(=O)[C@@H]2CCCCN2C(=O)C(=O)C(C)(C)COC1=O,inhibition,[1],Active
same,Activity,[2],Active
same,inhibition,[3],inactive
same,Activity,Albumin,Active
same,inhibition,[4],inactive
same,inhibition,[5],inactive
same,inhibition,[6],Active
same,inhibition,[7],inactive
same,Activity,[8],Active
same,inhibition,[9],Active
same,inhibition,[10],Active
same,Activity,[11],Active
same,Activity,[12],Active
same,Activity,[13],Active
CCCC[C@H]1NC(=O)[C@@H](Cc2ccc3ccccc3c2)NC(=O)[C@@H](Cc2ccc3ccccc3c2)NC(=O)[C@@H](CCCCN)NC(=O)[C@H](CCCNC(=N)N)NC(=O)[C@H](Cc2ccc(F)cc2)NC(=O)[C@H](CCC(N)=O)NC(=O)C[C@@H](CCc2ccccc2)NC(=O)[C@@H]2CCCCN2C(=O)C(=O)C(C)(C)COC1=O,IC50,GTPase KRas,10000 nM
CC(C)C[C@@H]1NC(=O)[C@H](CCCNC(=N)N)NC(=O)[C@H](CCCNC(=N)N)NC(=O)[C@H](Cc2ccc(O)cc2)NC(=O)[C@H](Cc2ccc(F)cc2)NC(=O)[C@H](CCCNC(=N)N)NC(=O)[C@H](CCC(N)=O)NC(=O)C[C@@H](CCc2ccccc2)NC(=O)[C@@H]2CCCCN2C(=O)C(=O)C(C)(C)COC1=O ([Pip][dβ3h(hPhe)]QR[Phe(4-F)]YRRL; linker N-C via X1),Activity,[14],inactive
same,Activity,[2],inactive
same,Activity,Albumin,Not Active
same,Activity,[8],inactive
same,Activity,[11],inactive
same,Activity,[12],inactive
